Results from PMC10315065 (Journal of Innate Immunity, 2023).
Starred links: 1 amine or outer side, 2 acyl side, 3 side chain; linkers in the order of their positions; H or OH if unused. Positions of bridges follow the written chain, without caps; N, C: chain ends. Non-standard residues stand in square brackets, D forms with d. Residues, ends and D or L forms follow the SMILES beside them. Chains are numbered I, II in the order given. Actinocin(9to1) = Cc1c2oc3c(C)ccc(C(=O)[*:1])c3nc-2c(C(=O)[*:2])c(N)c1=O; NMeV = CN[C@H](C(=O)O)C(C)C; Sar = CNCC(=O)O

Legend:
[1] = Downstream effects of scrambled peptide; details: statement on negative control peptide
[2] = test system: intracellular Mycobacterium tuberculosis in macrophages; details: cited from earlier work; for autophagy activation and M.tb elimination: via induction of cathelicidin LL-37
J774 macrophages = assay: Flow cytometry binding/internalization of labelled peptide, J774; assay type: cell-based, mouse; details: n = 3
peritoneal macrophages = assay: Flow cytometry binding/uptake of LL-37-FAM, peritoneal macrophages; assay type: cell-based, C57BL/6 mice
cell surface GAPDH, J774 = assay type: cell-based, mouse; details: KN-62 100 nM, 4 h; J774 wild-type; n = 3
[3] = test system: GAPDH KD and wild-type cells; details: induced with actinomycin D; cited from earlier work
TLR-4, THP-1 cells = assay: TLR-4 membrane expression on LPS treatment; assay type: cell-based; details: LPS 1 ug, 24 h; PMA-activated THP-1
THP-1 cells = assay: Endocytosis of BSA-FITC; assay type: cell-based; details: BSA-FITC 10 μg, 37°C, 30 min; PMA-activated THP-1

GLKLRFEFSKIKGEFLKTPEVRFRDIKLKDNRISVQR [scrambled peptide]
downstream effects of scrambled peptide [1]: does not show downstream effects like the LL-37 peptide

O=C(O)CCCc1ccccc1 [phenylbutyrate]
autophagy activation and M.tb elimination [2]: activate the antibacterial autophagy mechanism

5-FAM-LC-LLGDFFRKSKEKIGKEFKRIVQRIKDFLRNLVPRTES [LL-37-FAM]
LL-37 membrane accumulation and uptake, IFNγ-treated (J774 macrophages; IFNγ-treated subsets vs control cells): initial higher accumulation of FAM-LL-37 at their membrane, followed by increase in LL-37 uptake into the cytoplasm | cell surface LL-37 binding and uptake, M.tb infected (peritoneal macrophages): significantly enhanced

C=C1/C(=C\C=C2/CCC[C@]3(C)[C@@H]([C@H](C)CCCC(C)(C)O)CC[C@@H]23)C[C@@H](O)C[C@@H]1O [vitamin 1,25-D3]
autophagy activation and M.tb elimination [2]: activate the antibacterial autophagy mechanism

CN([C@@H](Cc1ccc(OS(=O)(=O)c2cccc3cnccc23)cc1)C(=O)N1CCN(c2ccccc2)CC1)S(=O)(=O)c1cccc2cnccc12 [KN-62, 1-(N,O-bis(5-Isoquinolinesulfonyl)-N-methyl-L-tyrosyl)-4-phenylpiperazine]
cell surface GAPDH expression with KN-62 (cell surface GAPDH, J774): decrease in cell surface GAPDH expression | LL-37 uptake with KN-62 (J774 macrophages; KN-62 100 nM, 4 h, J774 wild-type): inhibition of LL-37 uptake into cells | effect on LL-37-induced anti-mycobacterial effects ([2]; KN-62): does not inhibit LL-37-induced anti-mycobacterial effects

Cc1c2oc3c(C)ccc(C(=O)N[C@@H]4C(=O)N[C@H](C(C)C)C(=O)N5CCC[C@H]5C(=O)N(C)CC(=O)N(C)[C@@H](C(C)C)C(=O)O[C@@H]4C)c3nc-2c(C(=O)N[C@@H]2C(=O)N[C@H](C(C)C)C(=O)N3CCC[C@H]3C(=O)N(C)CC(=O)N(C)[C@@H](C(C)C)C(=O)O[C@@H]2C)c(N)c1=O [actinomycin D] (I: T[dV]P[Sar][NMeV] / II: T[dV]P[Sar][NMeV]; ester I:1-I:C, II:1-II:C; linker I:N-II:N via Actinocin(9to1))
induction of apoptosis, GAPDH KD vs wild-type [3]: comparable

lipopolysaccharide
TLR-4 membrane expression, empty vector and GAPDH KD (TLR-4, THP-1 cells): upregulation of TLR-4 membrane expression levels

BSA: BSA-FITC, endocytosis control
endocytosis of BSA, empty vector vs GAPDH KD (THP-1 cells): could equally well carry out endocytosis of BSA
